Experimental data reported in patent US20050032873A1, “3-Amino chroman and 2-amino tetralin derivatives” (Wyeth, priority 2003, published 2005).
Where two headings read alike, the source gives them in different places.

What was measured:
[1] = molecular target: T1, 5-HT1A receptor (Homo sapiens, UniProt P08908); assay: 5-HT1A receptor affinity: displacement of [3H] 8-OH-DPAT; assay type: binding; set-up: expressed in transfected cells; conditions: for Ki: displacement of [3H] 8-OH-DPAT, CHO cells stably transfected with human 5-HT1A receptors, read-out: 5-HT1A Receptor Affinity Ki; for inhibition at 1 µM: read-out: 5-HT1A Receptor Affinity, % @ 1 μM
T1 sequence (P08908 1-422): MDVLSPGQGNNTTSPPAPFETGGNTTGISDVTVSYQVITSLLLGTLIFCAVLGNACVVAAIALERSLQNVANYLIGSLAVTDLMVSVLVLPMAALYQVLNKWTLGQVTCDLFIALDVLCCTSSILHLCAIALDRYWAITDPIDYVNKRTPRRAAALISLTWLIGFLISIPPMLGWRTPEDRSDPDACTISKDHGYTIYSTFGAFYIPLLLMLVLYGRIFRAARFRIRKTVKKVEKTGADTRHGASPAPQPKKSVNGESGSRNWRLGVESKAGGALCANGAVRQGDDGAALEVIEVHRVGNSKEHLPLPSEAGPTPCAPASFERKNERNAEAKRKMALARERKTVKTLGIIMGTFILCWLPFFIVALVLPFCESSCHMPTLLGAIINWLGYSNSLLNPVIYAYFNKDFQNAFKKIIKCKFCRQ

[2] = molecular target: T2, serotonin transporter (Rattus norvegicus, UniProt P31652); assay: 5-HT transporter affinity: displacement of 3H-paroxetine from male rat cortical membranes; assay type: binding; conditions: displacement of 3H-paroxetine; male rat cortical membranes; read-out: 5-HT Transporter Affinity Ki
T2 construct: displace ^3H-paroxetine from male rat cortical membranes; from tissue; host or cells: male rat cortical membranes
T2 sequence (P31652 whole entry): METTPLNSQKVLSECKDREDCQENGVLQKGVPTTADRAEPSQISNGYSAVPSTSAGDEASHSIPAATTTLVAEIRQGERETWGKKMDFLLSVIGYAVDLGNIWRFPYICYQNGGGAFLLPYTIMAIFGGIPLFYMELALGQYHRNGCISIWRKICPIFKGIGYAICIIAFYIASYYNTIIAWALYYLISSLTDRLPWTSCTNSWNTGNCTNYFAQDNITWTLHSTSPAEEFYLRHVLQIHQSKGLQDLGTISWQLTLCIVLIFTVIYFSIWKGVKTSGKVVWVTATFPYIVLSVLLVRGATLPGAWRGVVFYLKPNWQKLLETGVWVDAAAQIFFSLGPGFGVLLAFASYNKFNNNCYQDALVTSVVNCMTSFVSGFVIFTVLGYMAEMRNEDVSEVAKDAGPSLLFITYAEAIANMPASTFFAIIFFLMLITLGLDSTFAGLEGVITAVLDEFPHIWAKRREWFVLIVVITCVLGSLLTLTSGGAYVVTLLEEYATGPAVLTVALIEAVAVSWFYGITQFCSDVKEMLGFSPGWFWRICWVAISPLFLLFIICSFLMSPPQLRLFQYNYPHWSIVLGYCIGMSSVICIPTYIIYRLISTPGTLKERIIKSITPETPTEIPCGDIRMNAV

[3] = molecular target: T1, 5-HT1A receptor; assay: cAMP accumulation assay, 5-HT1A function; assay type: cell-based; conditions: for IC50: cells marked IC50 (antagonist), read-out: 5-HT1A Function cAMP IC50; for Emax: read-out: 5-HT1A Function cAMP (Emax); for EC50: cells marked EC50 (agonist)
Excerpt: The agonist or antagonist activity at 5-HT1A receptors was established by using two different assays. […] Agonists produce an increase in binding whereas antagonists produce no increase but rather reverse the effects of the standard agonist 8-OH-DPAT. The test compound's maximum stimulatory effect is represented as the Emax, while its potency is defined by the EC50. The test compound's maximum inhibitory effect is represented as the Imax, while its potency is defined by the IC50. The second assay measured cAMP accumulation upon binding of the ligand to the 5-HT1A receptor. […] The test compound's maximum stimulatory or inhibitory effect is represented as the Emax while its potency is defined by either IC50 for an antagonist or EC50 for an agonist. [^3H]-8-OH-DPAT was used to determine maximum agonist or antagonist response in both functional assays.

[4] = molecular target: T3, cloned human 5-HT1A receptors (Homo sapiens, UniProt P08908); assay: 35S-GTPγS binding assay, 5-HT1A function; assay type: biochemical; conditions: for EC50: agonist potency; for IC50: antagonist potency, reversal of 8-OH-DPAT, read-out: 5-HT1A Function GTPγS IC50
T3 construct: expressed in transfected cells
T3 sequence (P08908 1-422): T1 sequence (P08908 1-422)

[5] = maximum stimulatory effect, in brackets after EC50, read-out: 5-HT1A Function GTPγS (Emax)
[6] = maximum inhibitory effect, in brackets after IC50, read-out: 5-HT1A Function GTPγS (Imax)

Row | SMILES | Ki [1] | Ki [2] | IC50 [3] | 5-HT1A Function cAMP (Emax) ([3]; in brackets after EC50 or IC50) | Emax ([3]; in brackets after EC50 or IC50) | EC50 [3] | EC50 [4] | Emax [4, 5] | inhibition at 1 µM [1] | IC50 [4] | Emax [4, 6]
1 | CC(Cc1c[nH]c2ccc(F)cc12)CN(CC1CC1)[C@H]1COc2c(F)ccc(C(N)=O)c2C1 (single isomer, unassigned) [Compound 155b] | 128 nM | 144 nM | 846 nM | 0% |  |  |  |  |  |  | 
2 | N#Cc1ccc2[nH]cc(CCCN(C3CCC3)[C@@H]3COc4c(F)ccc(C(N)=O)c4C3)c2c1 [Compound 97a, (3S)-3-[[3-(5-cyano-1H-indol-3-yl)propyl](cyclobutyl)amino]-8-fluorochromane-5-carboxamide] | 258 nM | 9 nM | 581 nM |  | 0% |  |  |  |  |  | 
3 | CCN(CCCc1c[nH]c2ccc(OC)cc12)C1COc2c(F)ccc(C(N)=O)c2C1 (centres unmarked) [Compound 105, 3-{ethyl[3-(5-methoxy-1H-indol-3-yl)propyl]amino}-8-fluorochromane-5-carboxamide] | 24.3 nM | 236 nM |  |  | 81% | 96.7 nM |  |  |  |  | 
4 | NC(=O)c1ccc(F)c2c1OCC(N(CCCc1c[nH]c3ccc(F)cc13)CC1CC1)C2 (centres unmarked) [Compound 121, 3-{(cyclopropylmethyl)[3-(5-fluoro-1H-indol-3-yl)propyl]amino}-5-fluorochromane-8-carboxamide] | 67.7 nM | 41.8 nM |  |  |  |  | 3820 nM | 70% |  |  | 
5 | NC(=O)c1ccc(F)c2c1OCC(NCCCCc1c[nH]c3ccc(F)cc13)C2 (centres unmarked) [Compound 123, 5-fluoro-3-{[4-(5-fluoro-1H-indol-3-yl)butyl]amino}chromane-8-carboxamide] | 280 nM | 3.81 nM |  |  |  |  | 2260 nM | 100% |  |  | 
6 | CCCN(CCCCc1c[nH]c2ccc(F)cc12)C1COc2c(C(N)=O)ccc(F)c2C1 (centres unmarked) [Compound 124, 5-fluoro-3-[[4-(5-fluoro-1H-indol-3-yl)butyl](propyl)amino]chromane-8-carboxamide] |  | 9.9 nM |  |  |  |  | 698 nM | 41% | 48% |  | 
7 | NC(=O)c1ccc(F)c2c1OCC(NCCCc1c[nH]c3c(F)cc(F)cc13)C2 (centres unmarked) [Compound 128, 3-{[3-(5,7-difluoro-1H-indol-3-yl)propyl]amino}-5-fluorochromane-8-carboxamide] |  | 54.5 nM |  |  |  |  | 608 nM | 59% | 47% |  | 
8 | NC(=O)c1cccc2c1C[C@@H](NCCCc1c[nH]c3ccc(F)cc13)CO2 [Compound 133b, (3R)-3-{[3-(5-fluoro-1H-indol-3-yl)propyl]amino}chromane-5-carboxamide] | 38.6 nM | 43.2 nM |  |  |  |  | 1000 nM | 83% |  |  | 
9 | CNC(=O)c1cccc2c1CC(N(CCCc1c[nH]c3c(F)cc(F)cc13)C1CCC1)CO2 (centres unmarked) [Compound 138, 3-{cyclobutyl[3-(5,7-difluoro-1H-indol-3-yl)propyl]amino}-N-methylchromane-5-carboxamide] | 1.27 nM | 3.34 nM |  |  |  |  | 43 nM | 100% |  |  | 
10 | CCNC(=O)c1cccc2c1CC(N(CCCc1c[nH]c3c(F)cc(F)cc13)C1CCC1)CO2 (centres unmarked) [Compound 139, 3-{cyclobutyl[3-(5,7-difluoro-1H-indol-3-yl)propyl]amino}-N-ethylchromane-5-carboxamide] | 4.83 nM | 3.9 nM |  |  |  |  | 180 nM | 81% |  |  | 
11 | CCCNC(=O)c1cccc2c1CC(N(CCCc1c[nH]c3c(F)cc(F)cc13)C1CCC1)CO2 (centres unmarked) [Compound 140, 3-{cyclobutyl[3-(5,7-difluoro-1H-indol-3-yl)propyl]amino}-N-propylchromane-5-carboxamide] | 39.2 nM | 3.78 nM |  |  |  |  | 1020 nM | 65% |  |  | 
12 | CC(C)NC(=O)c1cccc2c1CC(N(CCCc1c[nH]c3c(F)cc(F)cc13)C1CCC1)CO2 (centres unmarked) [Compound 141, 3-{cyclobutyl[3-(5,7-difluoro-1H-indol-3-yl)propyl]amino}-N-isopropylchromane-5-carboxamide] | 7.69 nM | 3.52 nM |  |  |  |  | 287 nM | 99% |  |  | 
13 | O=C(NC1CC1)c1cccc2c1CC(N(CCCc1c[nH]c3c(F)cc(F)cc13)C1CCC1)CO2 (centres unmarked) [Compound 142, 3-{cyclobutyl[3-(5,7-difluoro-1H-indol-3-yl)propyl]amino}-N-cyclopropylchromane-5-carboxamide] | 4.03 nM | 3.88 nM |  |  |  |  | 122 nM | 54% |  |  | 
14 | NC(=O)c1ccc(F)c2c1C[C@@H](N(CCCc1c[nH]c3c(F)cc(F)cc13)CC1CC1)CO2 [Compound 147, (3R)-3-{(cyclopropylmethyl)[3-(5,7-difluoro-1H-indol-3-yl)propyl]amino}-8-fluorochromane-5-carboxamide] | 3.04 nM | 10.7 nM | 505 nM |  | 0% |  |  |  |  |  | 
15 | CC(C)CN(CCCc1c[nH]c2ccc(F)cc12)C1COc2cccc(C(N)=O)c2C1 (centres unmarked) [Compound 151, 3-[[3-(5-fluoro-1H-indol-3-yl)propyl](isobutyl)amino]chromane-5-carboxamide] | 102 nM | 1190 nM |  |  | 94% | 168 nM |  |  |  |  | 
16 | COc1cccc2c(CCN(C3CCC3)C3COc4c(F)ccc(C(N)=O)c4C3)coc12 (centres unmarked) [Compound 159, 3-{cyclobutyl[2-(7-methoxy-1-benzofuran-3-yl)ethyl]amino}-8-fluorochromane-5-carboxamide] |  | 149 nM |  |  |  |  |  |  | 30% | 5000 nM | 25%
17 | CCCCN(CCCc1coc2c(OC)cccc12)C1COc2c(F)ccc(C(N)=O)c2C1 (centres unmarked) [Compound 166, 3-{butyl[3-(7-methoxy-1-benzofuran-3-yl)propyl]amino}-8-fluorochromane-5-carboxamide] | 14.2 nM | 498 nM | 301 nM |  | 0% |  |  |  |  |  | 
18 | CCCN(CCCCc1coc2c(OC)cccc12)[C@H]1COc2c(F)ccc(C(N)=O)c2C1 [Compound 172, (3R)-8-fluoro-3-[[4-(7-methoxy-1-benzofuran-3-yl)butyl](propyl)amino]chromane-5-carboxamide] | 497 nM | 516 nM | 379 nM |  | 0% |  |  |  |  |  | 
19 | NC(=O)c1ccc(F)c2c1CC(N(CCCCn1ccc3cccc(F)c31)CC1CC1)CO2 (centres unmarked) [Compound 191, 3-{(Cyclopropylmethyl)[4-(7-fluoro-1H-indol-1-yl)butyl]amino}-8-fluorochromane-5-carboxamide] | 19.3 nM | 38.7 nM |  |  |  |  |  |  |  | 204 nM | 74%
20 | NC(=O)c1ccc(F)c2c1CC(N(CCCCn1ccc3cccc(F)c31)C1CCC1)CO2 (centres unmarked) [Compound 192, 3-{Cyclobutyl[4-(7-fluoro-1H-indol-1-yl)butyl]amino}-8-fluorochromane-5-carboxamide] | 39.9 nM | 39.3 nM |  |  |  |  |  |  |  | 1750 nM | 86%
21 | CCN(CCCCn1ccc2ccc(F)cc21)C1COc2c(F)ccc(C(N)=O)c2C1 (centres unmarked) [Compound 193, 3-{Ethyl[4-(6-fluoro-1H-indol-1-yl)butyl]amino}-8-fluorochromane-5-carboxamide] | 21.6 nM | 15.6 nM |  |  | 89% | 117 nM |  |  |  |  | 
22 | CCCN(CCCCn1ccc2ccc(F)cc21)C1COc2c(F)ccc(C(N)=O)c2C1 (centres unmarked) [Compound 194, 8-Fluoro-3-[[4-(6-fluoro-1H-indol-1-yl)butyl](propyl)amino]chromane-5-carboxamide] | 10.7 nM | 70 nM |  |  | 81% | 74.1 nM |  |  |  |  | 
23 | NC(=O)c1ccc(F)c2c1CC(N(CCCCn1ccc3ccc(F)cc31)C1CCC1)CO2 (centres unmarked) [Compound 196, 3-{Cyclobutyl[4-(6-fluoro-1H-indol-1-yl)butyl]amino}-8-fluorochromane-5-carboxamide] | 12.8 nM | 124 nM |  |  |  |  |  |  |  | 428 nM | 100%
24 | CCCN(CCCCn1ccc2cc(F)ccc21)C1COc2c(F)ccc(C(N)=O)c2C1 (centres unmarked) [Compound 198, 8-Fluoro-3-[[4-(5-fluoro-1H-indol-1-yl)butyl](propyl)amino]chromane-5-carboxamide] | 6.54 nM | 114 nM |  |  | 82% | 67.7 nM |  |  |  |  | 
25 | NC(=O)c1ccc(F)c2c1CC(N(CCCCn1ccc3cc(F)ccc31)CC1CC1)CO2 (centres unmarked) [Compound 199, 3-{(Cyclopropylmethyl)[4-(5-fluoro-1H-indol-1-yl)butyl]amino}-8-fluorochromane-5-carboxamide] | 5.44 nM | 77 nM |  |  | 72% | 74.7 nM |  |  |  |  | 
26 | NC(=O)c1ccc(F)c2c1CC(N(CCCCn1ccc3cc(F)ccc31)C1CCC1)CO2 (centres unmarked) [Compound 200, 3-{Cyclobutyl[4-(5-fluoro-1H-indol-1-yl)butyl]amino}-8-fluorochromane-5-carboxamide] | 10.8 nM | 241 nM |  |  |  |  |  |  |  | 1110 nM | 100%
